Results reported in paper PMC11084427 (2024).

Columns and labels:
[1] = test system: poly dA-poly dT (pdApdT) (DNA, polymer) A/T; assay: UV melting, 260 nm; details: Na+ (sodium cacodylate, I = 0.05 M), pH 7.0, per base
[2] = test system: poly A-poly U (pApU) (RNA, polymer) A/U; assay: fluorescence titration, Scatchard; details: Na+ (sodium cacodylate, I = 0.05 M), per phosphate, per base
[3] = test system: poly dA-poly dT (pdApdT) (DNA, polymer) A/T; assay: fluorescence titration, Scatchard; details: Na+ (sodium cacodylate, I = 0.05 M); pH 7.0, 25 °C; per phosphate; per base
[4] = test system: dAdTdT (ATT) triplex (DNA, polymer) A/T/T; assay: UV melting, 260 nm; details: Na+ (sodium cacodylate with NaCl, I = 0.1 M); pH 7.0, 1 mM EDTA; 7.5 μM compound, r = 0.3; transition Tm3→1 (third strand); per base
[5] = test system: poly(dGdC)2 (DNA, polymer) GC; assay: fluorescence titration, Scatchard; details: Na+ (sodium cacodylate, I = 0.05 M); pH 7.0, 25 °C; per phosphate; per base
[6] = test system: poly(dAdT)2 (DNA, polymer) AT; assay: fluorescence titration, Scatchard; details: Na+ (sodium cacodylate, I = 0.05 M); pH 7.0, 25 °C; per phosphate; per base
[7] = test system: poly(dAdT)2 (DNA, polymer) AT; assay: UV melting, 260 nm; details: Na+ (sodium cacodylate, I = 0.05 M); pH 7.0; compound/polynucleotide r = 0.3; per base
[8] = test system: poly A-poly U (pApU) (RNA, polymer) A/U; assay: UV melting, 260 nm; details: Na+ (sodium cacodylate, I = 0.05 M); pH 7.0; compound/polynucleotide r = 0.3; per base
[9] = test system: dAdTdT (ATT) triplex (DNA, polymer) A/T/T; assay: fluorescence titration, Scatchard; details: Na+ (sodium cacodylate, I = 0.05 M); pH 7.0, 25 °C; per phosphate; per base
[10] = compound/polynucleotide r = 0.3

SMILES	ΔTm ([1]; r = 0.3, biphasic, second transition) [°C]	log Ka ([2]; pH 7.0, 25 °C)	log Ka [3]	ΔTm [4] [°C]	log Ka [5]	log Ka [6]	ΔTm [7] [°C]	ΔTm [8] [°C]	log Ka [9]	ΔTm [1, 10] [°C]	log Ka ([2]; pH 5.0, 25 °C, not determinable at pH 7.0)
COC(=O)[C@H](Cc1ccc2c(c1)c(C)nc1ccccc12)NC(=O)[C@H](CCCCN)NC(=O)CNC(=O)c1ccc(C(=O)NC(=N)N)[nH]1	2.1 ± 0.5	7.1	6.6	1.1 ± 0.5	5.8	6.7	1.0 ± 0.5	2.5 ± 0.5	7.4	–	–
COC(=O)[C@H](Cc1ccc2c(c1)c(C)nc1ccccc12)NC(=O)CNC(=O)[C@H](CCCCN)NC(=O)c1ccc(C(=O)NC(=N)N)[nH]1	–	–	–	–	6.1	6.7	2.6 ± 0.5	0 ± 0.5	–	1.5 ± 0.5	5.5
COC(=O)[C@H](Cc1ccc2c(c1)c(C)nc1ccccc12)NC(=O)CNC(=O)CNC(=O)c1ccc(C(=O)NC(=N)N)[nH]1	–	–	–	–	–	–	1.2 ± 0.5	0 ± 0.5	–	0.7 ± 0.5	–
